PubChem BioAssay AID330 (DTP/NCI, 2004)
Values joined by “and” are separate entries in the source; they are usually repeats but may differ in a detail not shown here. Equal values may be shown once. Toxic doses and inconclusive results are not listed.

System: P388 leukemia ip, CD2F1 mice, survival T/C
Experiment: NCI In Vivo Anticancer Drug Screen. Data for tumor model P388 Leukemia (intraperitoneal) in CD2F1 (CDF1) mice
Conditions: endpoint: median survival time, higher = longer survival
In short: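 Mice carrying the transplanted tumor received test compound or vehicle. Survival was recorded in each group, and the value is the treated-group measurement divided by that of the vehicle-treated control group.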

[1] = dose: 60.0 mg/kg/injection, schedule: Q01DX005 (ip), vehicle: Klucel (hydroxypropylcellulose) (HPC)
[2] = dose: 120.0 mg/kg/injection, schedule: Q01DX005 (ip), vehicle: Klucel (hydroxypropylcellulose) (HPC)
[3] = dose: 240.0 mg/kg/injection, schedule: Q01DX005 (ip), vehicle: Klucel (hydroxypropylcellulose) (HPC)
[4] = dose: 12.5 mg/kg/injection, schedule: Q01DX009 (ip), vehicle: saline with Tween-80
[5] = dose: 50.0 mg/kg/injection, schedule: Q01DX005 (ip), vehicle: saline
[6] = dose: 50.0 mg/kg/injection, schedule: Q01DX005 (ip), vehicle: Klucel (hydroxypropylcellulose) (HPC)
[7] = dose: 100.0 mg/kg/injection, schedule: Q01DX005 (ip), vehicle: Klucel (hydroxypropylcellulose) (HPC)
[8] = dose: 200.0 mg/kg/injection, schedule: Q01DX005 (ip), vehicle: Klucel (hydroxypropylcellulose) (HPC)
[9] = dose: 100.0 mg/kg/injection, schedule: Q01DX001 (ip), vehicle: saline with Tween-80
[10] = dose: 100.0 mg/kg/injection, schedule: Q01DX001 (ip), vehicle: Klucel (hydroxypropylcellulose) (HPC)
[11] = dose: 200.0 mg/kg/injection, schedule: Q01DX001 (ip), vehicle: Klucel (hydroxypropylcellulose) (HPC)
[12] = dose: 100.0 mg/kg/injection, schedule: Q01DX009 (ip), vehicle: saline with Tween-80
[13] = dose: 200.0 mg/kg/injection, schedule: Q01DX009 (ip), vehicle: saline with Tween-80

For O=C1C2=C(Nc3cc([N+](=O)[O-])ccc3N2)OC1c1ccc(C2OC3=C(Nc4ccc([N+](=O)[O-])cc4N3)C2=O)cc1 (stereo not given), the T/C [1] was 102 % of control, the T/C [2] was 96 % of control and the T/C [3] was 99 % of control.

For CNC(=O)OCc1c(COC(=O)NC)c(-c2ccc(Cl)cc2)n(C)c1-c1ccccc1, the T/C (dose: 12.5 mg/kg/injection, schedule: Q01DX009 (ip), vehicle: distilled water + Tween-80) was 154 % of control, the T/C (dose: 25.0 mg/kg/injection, schedule: Q01DX009 (ip), vehicle: distilled water + Tween-80) was 157 % of control and 172 % of control and the T/C (dose: 50.0 mg/kg/injection, schedule: Q01DX009 (ip), vehicle: distilled water + Tween-80) was 181 % of control.

In the case of O=C1C=CC(=Nc2ccc3c(c2)C(Br)c2ccccc2-3)O1 (stereo not given), the T/C (dose: 4.0 mg/kg/injection, schedule: Q01DX009 (ip), vehicle: saline with Tween-80) is reported as 113 % of control, the T/C (dose: 6.0 mg/kg/injection, schedule: Q01DX009 (ip), vehicle: saline with Tween-80) is reported as 104 % of control and the T/C (dose: 6.25 mg/kg/injection, schedule: Q04DX003 (ip), vehicle: saline with Tween-80) is reported as 113 % of control. For the same compound, the T/C (dose: 9.0 mg/kg/injection, schedule: Q01DX009 (ip), vehicle: saline with Tween-80) was 90 % of control, the T/C [4] was 113 % of control and the T/C (dose: 12.5 mg/kg/injection, schedule: Q04DX003 (ip), vehicle: saline with Tween-80) was 100 % of control. The T/C (dose: 25.0 mg/kg/injection, schedule: Q04DX003 (ip), vehicle: saline with Tween-80) was 113 % of control.

For COc1cccc2c1C(=O)c1c(O)c3c(c(O)c1C2=O)CC(O)(C(C)=O)CC3OC1CC(NC2CCOCC2)C(O)C(C)O1 (stereo not given), the T/C (dose: 3.12 mg/kg/injection, schedule: Q04DX003 (ip), vehicle: water) was 101 % of control, the T/C (dose: 6.25 mg/kg/injection, schedule: Q04DX003 (ip), vehicle: water) was 101 % of control and 107 % of control and the T/C (dose: 12.5 mg/kg/injection, schedule: Q04DX003 (ip), vehicle: water) was 102 % of control and 107 % of control. The T/C (dose: 25.0 mg/kg/injection, schedule: Q04DX003 (ip), vehicle: water) was 118 % of control, the T/C (dose: 50.0 mg/kg/injection, schedule: Q04DX003 (ip), vehicle: water) was 120 % of control and the T/C (dose: 200.0 mg/kg/injection, schedule: Q04DX003 (ip), vehicle: water) was 111 % of control.

With CCC(C)N(CC(C)C)CC(C)(O)CNc1cc(OC)cc2cccnc12 (stereo not given) the T/C (dose: 12.0 mg/kg/injection, schedule: Q01DX005 (ip), vehicle: saline) was 100 % of control, the T/C (dose: 25.0 mg/kg/injection, schedule: Q01DX005 (ip), vehicle: saline) was 105 % of control and the T/C [5] was 108 % of control and 96 % of control.

In the case of COc1cccc(-c2nc(SC)nc(Cl)c2C#N)c1, the T/C (dose: 15.0 mg/kg/injection, schedule: Q01DX005 (ip), vehicle: saline with Tween-80) is reported as 96 % of control, the T/C (dose: 30.0 mg/kg/injection, schedule: Q01DX005 (ip), vehicle: saline with Tween-80) is reported as 86 % of control and the T/C (dose: 60.0 mg/kg/injection, schedule: Q01DX005 (ip), vehicle: saline with Tween-80) is reported as 108 % of control and 93 % of control. For the same compound, the T/C (dose: 120.0 mg/kg/injection, schedule: Q01DX005 (ip), vehicle: saline with Tween-80) was 113 % of control.

In the case of CC(=O)N1N=C(c2ccc(OCC(O)CN3CCN(CC(O)COc4ccc(C5=NN(C(C)=O)C(c6ccccc6)C5)cc4)CC3)cc2)CC1c1ccccc1 (stereo not given), the T/C (dose: 50.0 mg/kg/injection, schedule: Q01DX005 (ip), vehicle: saline with Tween-80) is reported as 100 % of control and the T/C (dose: 100.0 mg/kg/injection, schedule: Q01DX005 (ip), vehicle: saline with Tween-80) is reported as 86 % of control.

N/C(=N\C(=O)OCc1ccccc1)NC(=O)OCc1ccccc1 was tested, and the T/C (dose: 25.0 mg/kg/injection, schedule: Q01DX009 (ip), vehicle: Klucel (hydroxypropylcellulose) (HPC)) was 99 % of control and 109 % of control, the T/C (dose: 50.0 mg/kg/injection, schedule: Q01DX009 (ip), vehicle: Klucel (hydroxypropylcellulose) (HPC)) was 104 % of control and 105 % of control and the T/C (dose: 100.0 mg/kg/injection, schedule: Q01DX009 (ip), vehicle: Klucel (hydroxypropylcellulose) (HPC)) was 103 % of control and 104 % of control. For the same compound, the T/C (dose: 200.0 mg/kg/injection, schedule: Q01DX009 (ip), vehicle: Klucel (hydroxypropylcellulose) (HPC)) was 99 % of control and 100 % of control and the T/C (dose: 400.0 mg/kg/injection, schedule: Q01DX009 (ip), vehicle: Klucel (hydroxypropylcellulose) (HPC)) was 99 % of control and 93 % of control.

C=CCP1(C)=NP(OCC(F)(F)F)(OCC(F)(F)F)=NP(OCC(F)(F)F)(OCC(F)(F)F)=N1 (stereo not given) was tested, and the T/C [6] was 99 % of control, the T/C [7] was 101 % of control and the T/C [8] was 92 % of control.

For Cc1cccc(-n2c(N)cc(=O)[nH]c2=S)n1, the T/C (dose: 25.0 mg/kg/injection, schedule: Q01DX001 (ip), vehicle: saline with Tween-80) was 100 % of control, the T/C (dose: 50.0 mg/kg/injection, schedule: Q01DX001 (ip), vehicle: saline with Tween-80) was 100 % of control and the T/C [9] was 109 % of control.

CCCC1(CCC)CCC2C3CCC4CC(O)CCC4(C)C3CCC2(C)N1O (stereo not given) was tested, and the T/C [10] was 92 % of control, the T/C [11] was 89 % of control and the T/C (dose: 400.0 mg/kg/injection, schedule: Q01DX001 (ip), vehicle: Klucel (hydroxypropylcellulose) (HPC)) was 91 % of control.

With CC(=O)OCC(OC(C)=O)C(Cl)CCl (stereo not given) the T/C [5] was 103 % of control, the T/C (dose: 100.0 mg/kg/injection, schedule: Q01DX005 (ip), vehicle: saline) was 101 % of control and the T/C (dose: 200.0 mg/kg/injection, schedule: Q01DX005 (ip), vehicle: saline) was 107 % of control.

For Cc1cc(C=C2C(=O)OC(C)(C)OC2=O)cc(C)c1O, the T/C [6] was 93 % of control, the T/C [7] was 90 % of control and the T/C [8] was 103 % of control.

CCCCCC(=O)c1c(O)cc2c(c1O)C(=O)c1c(O)cc(OC)cc1C2=O was tested, and the T/C (dose: 6.25 mg/kg/injection, schedule: Q01DX009 (ip), vehicle: saline with Tween-80) was 93 % of control and the T/C [4] was 93 % of control.

With Cc1cc(Cl)nn2cc(C(=O)O)nc12 the T/C (dose: 50.0 mg/kg/injection, schedule: Q01DX001 (ip), vehicle: Klucel (hydroxypropylcellulose) (HPC)) was 104 % of control, the T/C [10] was 96 % of control and the T/C [11] was 97 % of control.

CC(C)=CCC1=C(O)c2ccccc2C(=O)C1=O was tested, and the T/C (dose: 75.0 mg/kg/injection, schedule: Q01DX010 (ip), vehicle: other) was 120 % of control, the T/C (dose: 100.0 mg/kg/injection, schedule: Q01DX009 (ip), vehicle: saline) was 118 % of control and the T/C (dose: 100.0 mg/kg/injection, schedule: Q01DX010 (ip), vehicle: other) was 110 % of control. The T/C (dose: 100.0 mg/kg/injection, schedule: Q04DX003 (ip), vehicle: saline) was 110 % of control, the T/C (dose: 125.0 mg/kg/injection, schedule: Q01DX010 (ip), vehicle: other) was 120 % of control and the T/C (dose: 200.0 mg/kg/injection, schedule: Q01DX009 (ip), vehicle: saline) was 118 % of control. For the same compound, the T/C (dose: 200.0 mg/kg/injection, schedule: Q04DX003 (ip), vehicle: saline) was 115 % of control, the T/C (dose: 400.0 mg/kg/injection, schedule: Q01DX009 (ip), vehicle: saline) was 95 % of control and the T/C (dose: 400.0 mg/kg/injection, schedule: Q04DX003 (ip), vehicle: saline) was 120 % of control.

With O=S(=O)(O)c1ccc2c(-c3ccccc3)c3ccccc3c(-c3ccccc3)c2c1 the T/C [1] was 99 % of control, the T/C [2] was 100 % of control and the T/C [3] was 98 % of control.

With N#CC1=C(Nc2ccccc2)CCC1 the T/C (dose: 12.5 mg/kg/injection, schedule: Q01DX005 (ip), vehicle: Klucel (hydroxypropylcellulose) (HPC)) was 95 % of control, the T/C (dose: 25.0 mg/kg/injection, schedule: Q01DX005 (ip), vehicle: Klucel (hydroxypropylcellulose) (HPC)) was 101 % of control and the T/C [6] was 99 % of control and 101 % of control. For the same compound, the T/C [7] was 110 % of control.

For N#CCC1(c2ccccc2)CCCCC1, the T/C (dose: 50.0 mg/kg/injection, schedule: Q01DX009 (ip), vehicle: saline with Tween-80) was 97 % of control, the T/C [12] was 107 % of control and the T/C [13] was 107 % of control.

In the case of CC(=O)OCC1Cn2c(c(-c3ccccc3)c(=O)[nH]c2=S)O1 (stereo not given), the T/C (dose: 100.0 mg/kg/injection, schedule: Q04DX002 (ip), vehicle: Klucel (hydroxypropylcellulose) (HPC)) is reported as 106 % of control, the T/C (dose: 200.0 mg/kg/injection, schedule: Q04DX002 (ip), vehicle: Klucel (hydroxypropylcellulose) (HPC)) is reported as 107 % of control and the T/C (dose: 400.0 mg/kg/injection, schedule: Q04DX002 (ip), vehicle: Klucel (hydroxypropylcellulose) (HPC)) is reported as 110 % of control.

For COc1ccc(C(=O)O)cc1, the T/C [12] was 101 % of control, the T/C [13] was 96 % of control and the T/C (dose: 400.0 mg/kg/injection, schedule: Q01DX009 (ip), vehicle: saline with Tween-80) was 109 % of control.

In the case of CCOC(=O)/C=C(\C)Nc1ccccc1N, the T/C [9] is reported as 97 % of control and the T/C (dose: 200.0 mg/kg/injection, schedule: Q01DX001 (ip), vehicle: saline with Tween-80) is reported as 93 % of control.
